This passage reports IC50 and Ki results from ChEMBL document CHEMBL1909046, “DrugMatrix in vitro pharmacology data”.

One test has as its target Substance-P receptor (Homo sapiens, UniProt P25103). The class given is cell membranes, CHO, Membrane. The conditions noted are these: cho. Note: in other assays of this panel Not Active means under 50% inhibition at 10 µM.
In a further test the target is Adenosine receptor A2a (Homo sapiens, UniProt P29274). Kind of test: DRUGMATRIX: Adenosine A2A radioligand binding (ligand: […]). In kind it is cell membranes, HEK293, Membrane. The note with it: hek293; Not Active = under 50% inhibition at 10 µM.
Sequence of Adenosine receptor A2a (P29274 whole entry): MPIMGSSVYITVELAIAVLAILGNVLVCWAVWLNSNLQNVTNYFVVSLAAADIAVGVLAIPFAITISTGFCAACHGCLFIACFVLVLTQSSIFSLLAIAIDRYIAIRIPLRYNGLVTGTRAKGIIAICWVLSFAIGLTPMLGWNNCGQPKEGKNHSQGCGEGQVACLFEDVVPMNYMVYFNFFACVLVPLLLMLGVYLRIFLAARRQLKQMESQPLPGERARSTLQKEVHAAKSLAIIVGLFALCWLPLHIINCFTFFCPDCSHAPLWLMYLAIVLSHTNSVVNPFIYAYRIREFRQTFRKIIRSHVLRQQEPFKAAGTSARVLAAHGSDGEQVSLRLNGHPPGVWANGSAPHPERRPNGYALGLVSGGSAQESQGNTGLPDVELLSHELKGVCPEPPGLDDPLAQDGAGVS
The nature of test [1]: DRUGMATRIX: Calcium Channel Type L, Dihydropyridine radioligand binding (ligand: [3H] Nitrendipine). The class given is cell membranes, Rattus norvegicus, Wistar, Cerebral cortex, Membrane. The note with it: Not Active = under 50% inhibition at 10 µM.
The target in test [2] is T1, Amine oxidase [flavin-containing] A (Homo sapiens, UniProt P21397).
T1 sequence (P21397 whole entry): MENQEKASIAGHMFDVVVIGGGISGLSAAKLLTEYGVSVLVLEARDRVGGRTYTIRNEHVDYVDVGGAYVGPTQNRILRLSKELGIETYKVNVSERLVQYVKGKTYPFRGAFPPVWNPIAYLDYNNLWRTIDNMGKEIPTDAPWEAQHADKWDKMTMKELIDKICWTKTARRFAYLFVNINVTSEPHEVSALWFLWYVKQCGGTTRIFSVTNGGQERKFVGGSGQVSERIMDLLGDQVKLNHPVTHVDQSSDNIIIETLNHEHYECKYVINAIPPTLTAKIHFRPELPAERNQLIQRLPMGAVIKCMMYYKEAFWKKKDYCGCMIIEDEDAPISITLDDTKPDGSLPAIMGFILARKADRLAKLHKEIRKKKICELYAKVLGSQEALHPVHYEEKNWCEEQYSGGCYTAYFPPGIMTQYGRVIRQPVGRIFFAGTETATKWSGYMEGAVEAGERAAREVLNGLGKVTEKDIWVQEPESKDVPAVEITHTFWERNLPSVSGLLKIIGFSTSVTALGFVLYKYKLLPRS
Kind of test: DRUGMATRIX: Monoamine Oxidase MAO-A enzyme inhibition (substrate: Kynuramine). Further details: species or system BTI-TN-5B1-4. The conditions noted are these: Not Active = under 50% inhibition at 10 µM; for IC50: bti-tn-5b1-4.

The nature of test [3]: DRUGMATRIX: Phosphodiesterase PDE4 enzyme inhibition (substrate: [3H]cAMP + cAMP). The conditions noted are these: u-937; Not Active = under 50% inhibition at 10 µM.
The nature of test [4]: DRUGMATRIX: Phosphodiesterase PDE3 enzyme inhibition (substrate: [3H]cAMP + cAMP). The class given is tissue-based, Homo sapiens. The note with it: platelet; Not Active = under 50% inhibition at 10 µM.
The target in test [5] is T2, C-X-C chemokine receptor type 2 (Homo sapiens, UniProt P25025). Note: in other assays of this panel Not Active means under 50% inhibition at 10 µM.
T2 sequence (P25025 whole entry): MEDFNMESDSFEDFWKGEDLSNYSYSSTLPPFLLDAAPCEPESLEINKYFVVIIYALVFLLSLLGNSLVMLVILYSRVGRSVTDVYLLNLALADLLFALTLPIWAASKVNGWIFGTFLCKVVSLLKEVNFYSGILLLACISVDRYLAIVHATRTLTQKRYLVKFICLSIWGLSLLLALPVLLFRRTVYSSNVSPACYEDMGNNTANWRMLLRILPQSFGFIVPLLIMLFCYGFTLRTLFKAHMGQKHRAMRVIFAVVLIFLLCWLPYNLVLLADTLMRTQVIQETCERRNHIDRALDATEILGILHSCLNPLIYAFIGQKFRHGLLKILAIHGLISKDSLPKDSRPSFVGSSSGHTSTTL
In kind it is cell membranes, Membrane. The note with it: cho-k1.

In a further test the target is T3, Glucocorticoid receptor (Homo sapiens, UniProt P04150). Note: in other assays of this panel Not Active means under 50% inhibition at 10 µM.
T3 sequence (P04150 whole entry): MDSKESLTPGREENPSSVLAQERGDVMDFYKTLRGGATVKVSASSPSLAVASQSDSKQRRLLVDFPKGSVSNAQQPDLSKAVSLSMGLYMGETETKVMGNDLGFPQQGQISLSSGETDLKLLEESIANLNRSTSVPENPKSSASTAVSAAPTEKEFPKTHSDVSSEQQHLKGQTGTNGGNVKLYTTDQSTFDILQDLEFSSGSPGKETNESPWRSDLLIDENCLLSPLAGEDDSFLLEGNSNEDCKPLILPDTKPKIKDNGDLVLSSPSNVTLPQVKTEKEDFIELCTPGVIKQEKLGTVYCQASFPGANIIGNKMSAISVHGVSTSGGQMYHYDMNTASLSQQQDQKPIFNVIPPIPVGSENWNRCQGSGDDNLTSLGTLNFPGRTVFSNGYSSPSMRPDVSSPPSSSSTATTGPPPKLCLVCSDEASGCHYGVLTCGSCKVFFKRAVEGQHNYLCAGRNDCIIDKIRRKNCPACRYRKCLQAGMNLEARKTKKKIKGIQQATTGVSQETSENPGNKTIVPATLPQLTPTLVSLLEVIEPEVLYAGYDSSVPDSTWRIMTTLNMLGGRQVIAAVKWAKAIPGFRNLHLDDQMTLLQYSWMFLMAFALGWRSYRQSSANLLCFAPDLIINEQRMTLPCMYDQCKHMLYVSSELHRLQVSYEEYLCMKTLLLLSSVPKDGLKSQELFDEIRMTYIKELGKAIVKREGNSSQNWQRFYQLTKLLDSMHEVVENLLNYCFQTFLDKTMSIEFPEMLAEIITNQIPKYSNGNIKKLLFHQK
The conditions noted are these: hela s3.

Test [6] is described as follows: DRUGMATRIX: Leukotriene, BLT (LTB4) radioligand binding (ligand: [3H]LTB4). In kind it is cell membranes, Membrane. The conditions noted are these: u-937; Not Active = under 50% inhibition at 10 µM.
Test [7] is described as follows: DRUGMATRIX: Interleukin IL-1 radioligand binding (ligand: [125I] interleukin 1beta). The note with it: nih3t3; Not Active = under 50% inhibition at 10 µM. In kind it is cell membranes, Membrane.
Test [8] deals with Delta-type opioid receptor (Homo sapiens, UniProt P41143). The class given is cell membranes, HEK293, Membrane. The conditions noted are these: hek293.
Sequence of Delta-type opioid receptor (P41143 whole entry): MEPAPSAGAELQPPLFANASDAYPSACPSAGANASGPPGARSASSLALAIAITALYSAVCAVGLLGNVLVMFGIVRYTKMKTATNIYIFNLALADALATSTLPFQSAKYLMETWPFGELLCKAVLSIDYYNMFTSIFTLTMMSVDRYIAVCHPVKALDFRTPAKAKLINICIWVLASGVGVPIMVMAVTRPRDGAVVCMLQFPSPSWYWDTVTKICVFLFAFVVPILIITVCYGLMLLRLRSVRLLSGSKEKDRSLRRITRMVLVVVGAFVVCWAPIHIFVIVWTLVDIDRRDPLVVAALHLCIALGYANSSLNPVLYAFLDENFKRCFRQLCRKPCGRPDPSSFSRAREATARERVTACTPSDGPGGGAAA
Test [9] is described as follows: DRUGMATRIX: ATPase, Na+/K+ enzyme inhibition (substrate: ATP). The conditions noted are these: Not Active = under 50% inhibition at 10 µM. The class given is tissue-based, Sus scrofa, Heart.

pIC50: −log10 of the molar value.

Sequence of Substance-P receptor (P25103 whole entry): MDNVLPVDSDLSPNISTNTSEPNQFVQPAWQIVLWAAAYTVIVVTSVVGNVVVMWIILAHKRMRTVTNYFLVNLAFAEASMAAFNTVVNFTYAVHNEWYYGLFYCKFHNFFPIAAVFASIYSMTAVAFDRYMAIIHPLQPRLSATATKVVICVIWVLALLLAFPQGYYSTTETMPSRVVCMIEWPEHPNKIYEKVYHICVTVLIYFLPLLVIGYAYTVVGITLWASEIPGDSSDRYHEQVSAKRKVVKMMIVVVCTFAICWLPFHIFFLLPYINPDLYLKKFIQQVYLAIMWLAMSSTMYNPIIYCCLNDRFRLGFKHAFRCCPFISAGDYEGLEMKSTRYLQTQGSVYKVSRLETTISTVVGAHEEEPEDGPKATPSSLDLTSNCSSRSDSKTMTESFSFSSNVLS

As a reminder, the pIC50 is −log10 of the IC50, conventionally taken in molar units. Turning to `c1ccc2c(c1)cc1ccc3cccc4ccc2c1c34`, the IC50 entry (against Substance-P receptor; at Adenosine receptor A2a; in test [1]; in test [3]; in [4]; in test [5]) was “Not Active” throughout. In addition, the IC50 entry (against Glucocorticoid receptor; in [6]; in test [7]; in test [8]; in test [9]) was “Not Active” throughout. For the same compound, the Ki result in test [1], in test [3], in test [4], in test [6], in test [7] and in test [9] was “Not Active” in each case. In addition, in test [2] (read-out: IC50), the pIC50 was 5.22.

On to `N#C[C@H](O[C@@H]1O[C@H](CO[C@@H]2O[C@H](CO)[C@@H](O)[C@H](O)[C@H]2O)[C@@H](O)[C@H](O)[C@H]1O)c1ccccc1` [AMYGDALIN], for which the IC50 result (against Substance-P receptor; on Adenosine receptor A2a; in test [1]; in test [2]; in test [3]; in test [4]) was “Not Active” throughout. The IC50 entry (in [5]; at Glucocorticoid receptor; in test [6]; in [7]; in [8]; in test [9]) was “Not Active” each time. In addition, the Ki entry in test [1], in [3], in test [4], in test [6], in test [7] and in [9] was “Not Active” throughout.

In the case of `C=C1[C@@H]2CCC3[C@@](CC[C@@H]4[C@H](C(=O)O)C[C@@H](O[C@@H]5O[C@H](CO)[C@@H](OS(=O)(=O)[O-])[C@H](OS(=O)(=O)[O-])[C@H]5OC(=O)CC(C)C)C[C@@]34C)(C2)[C@@H]1O.[K+].[K+]` (stereo partly drawn) [ATRACTYLOSIDE], the IC50 result (against Substance-P receptor; at Adenosine receptor A2a; in test [1]; in [2]; in [3]; in test [4]) was “Not Active” throughout. Moreover, the IC50 entry (in test [5]; on Glucocorticoid receptor; in test [6]; in test [7]; in [8]; in [9]) was “Not Active” each time. Further, the Ki result in test [1], in test [3], in test [4], in [6], in test [7] and in [9] was “Not Active” throughout.

`CCCC[C@@H](CC)COC(=O)c1ccccc1C(=O)OC[C@@H](CC)CCCC` [BIS(2-ETHYLHEXYL)PHTHALATE]: the IC50 entry (on Substance-P receptor; at Adenosine receptor A2a; in test [1]; in [2]; in [3]; in test [4]) was “Not Active” throughout. Moreover, the IC50 entry (in test [5]; on Glucocorticoid receptor; in test [6]; in test [7]; in [8]; in [9]) was “Not Active” each time. The Ki result in test [1], in test [3], in test [4], in test [6], in test [7] and in test [9] was “Not Active” each time.

As for `CN1C[C@H](C(=O)N[C@]2(C)O[C@@]3(O)[C@@H]4CCCN4C(=O)[C@H](Cc4ccccc4)N3C2=O)C=C2c3cccc4[nH]cc(c34)C[C@H]21` [ERGOTAMINE], the IC50 entry (on Substance-P receptor; on Adenosine receptor A2a; in test [1]; in test [2]; in [3]; in test [4]) was “Not Active” each time. Besides, the IC50 entry (in test [5]; at Glucocorticoid receptor; in test [6]; in test [7]; in test [8]; in test [9]) was “Not Active” each time. The Ki result in [1], in [3], in test [4], in [6], in test [7] and in test [9] was “Not Active” in each case.

On to `C=C(C)[C@@H]1[C@H]2OC(=O)[C@@H]1[C@]1(O)C[C@H]3O[C@]34C(=O)O[C@H]2[C@]14C` [PICROTOXININ], for which the IC50 result (against Substance-P receptor; on Adenosine receptor A2a; in test [1]; in [2]; in test [3]; in test [4]) was “Not Active” each time. The IC50 entry (in test [5]; at Glucocorticoid receptor; in test [6]; in [7]; in [8]; in test [9]) was “Not Active” throughout. Also, the Ki result in test [1], in test [3], in test [4], in test [6], in [7] and in test [9] was “Not Active” each time.
